In article PMC10967822, “Antimicrobial Indole-3-Carboxamido-Polyamine Conjugates Target Bacterial Membranes and Are Antibiotic Potentiators” (Biomolecules, 2024):
In brackets after ≈: the same amount, converted by molar mass.

Assays:
P. aeruginosa ATCC 27853 [1] = assay: MIC, broth dilution, P. aeruginosa; type: cell-based, Pseudomonas aeruginosa; conditions: Pseudomonas aeruginosa, ATCC27853; P. aeruginosa ATCC 27853, 18 h; read-out: MIC Pa
[2] = test system: K. pneumoniae ATCC 700603; assay: MIC, broth microdilution (CO-ADD), K. pneumoniae; conditions: top dose 32 µg/mL
E. coli ATCC 25922 [3] = assay: Erythromycin potentiation against E. coli; type: cell-based, Escherichia coli; conditions: erythromycin at 2 µg/mL (2.7 µM); for Erythro/Ec fold-change (intrinsic MIC / combination MIC): E. coli; for Erythro/Ec: concentration required to restore erythromycin activity (combination MIC): mean n = 3
From the text: (§1) These measurements were independently repeated in triplicate.

human red blood cells = assay: Hemolytic assay; type: cell-based; conditions: 10% hemolytic activity, mean n = 2
Description: Human whole blood was washed three times with three volumes of 0.9% NaCl and then resuspended in the same solution to a concentration of 0.5 × 10^8 cells/mL, as determined by the manual cell count in a Neubauer hemocytometer. The washed cells were then added to the 384-well compound-containing plates for a final volume of 50 μL. After a 10 min shake on a plate shaker, the plates were then incubated for 1 h at 37 °C. After incubation, the plates were centrifuged at 1000× g for 10 min to pellet cells and debris; 25 μL of the supernatant was then transferred to a polystyrene 384-well assay plate. Hemolysis was determined by measuring the supernatant absorbance at […] (OD405). The absorbance was measured using a Tecan M1000 Pro monochromator plate reader. HC10 and HC50 (concentrations at 10% and 50% hemolysis, respectively) were calculated by a curve fitting the inhibition values vs. log (concentration) using a sigmoidal dose–response function with variable fitting values for the top, bottom, and slope.

P. aeruginosa ATCC 27853 [4] = assay: Doxycycline potentiation against P. aeruginosa; type: cell-based, Pseudomonas aeruginosa; conditions: doxycycline at 2 µg/mL (4.5 µM); for Dox/Pa fold-change (intrinsic MIC / combination MIC): P. aeruginosa ATCC 27853; for Dox/Pa: concentration required to restore doxycycline activity (combination MIC): P. aeruginosa ATCC 27853, mean n = 3
From the text: as §1

A. baumannii ATCC 19606 = assay: MIC, broth microdilution (CO-ADD), A. baumannii; type: cell-based, Acinetobacter baumannii; conditions: Acinetobacter baumannii, ATCC19606, top dose 32 µg/mL
S. aureus ATCC 25923 = assay: MIC, broth dilution, S. aureus; type: cell-based, Staphylococcus aureus; conditions: Staphylococcus aureus, ATCC25923; S. aureus ATCC 25923, 18 h; read-out: MIC Sa
C. albicans ATCC 90028 = assay: Antifungal MIC (CO-ADD), C. albicans; type: cell-based; conditions: Candida albicans, ATCC90028, top dose 32 µg/mL
Description: (§2) For the antifungal assay, fungi strains were cultured for 3 days on YPD agar at 30 °C. A yeast suspension of 1 × 10^6 to 5 × 10^6 CFU/mL was prepared from five colonies. These stock suspensions were diluted with a yeast nitrogen base (YNB) (Becton Dickinson, 233520, New South Wales, Australia) broth to a final concentration of 2.5 × 10^3 CFU/mL. […] The plates were covered and incubated at 35 °C for 36 h without shaking. C. albicans MICs were determined by measuring the absorbance at OD530. For C. neoformans, resazurin was added at a 0.006% final concentration to each well and incubated for a further 3 h before the MICs were determined by measuring the absorbance at OD570–600. […] Fluconazole was used as a positive fungal inhibitor standard for C. albicans and C. neoformans. […] The quality control (QC) of the assays was determined by the antimicrobial controls and the Z′-factor (using positive and negative controls).

E. coli ATCC 25922 [5] = assay: MIC, broth dilution, E. coli; type: cell-based, Escherichia coli; conditions: Escherichia coli, ATCC25922; E. coli ATCC 25922, 18 h
MRSA ATCC 43300 = assay: MIC, broth microdilution (CO-ADD), MRSA; type: cell-based, methicillin-resistant S. aureus; conditions: Staphylococcus aureus; MRSA ATCC 43300; top dose 32 µg/mL; read-out: MIC MRSA
[6] = Cytotoxicity assay (resazurin); type: cell-based; conditions: human, HEK293 cells, mean n = 2
[7] = test system: C. neoformans ATCC 208821; assay: Antifungal MIC (CO-ADD), C. neoformans; type: cell-based; conditions: Cryptococcus neoformans, ATCC208821, top dose 32 µg/mL
Description: as §2

SMILES | MIC (P. aeruginosa ATCC 27853 [1]) | MIC Kp [2] | Erythro/Ec fold-change (intrinsic MIC / combination MIC) (E. coli ATCC 25922 [3]) | Erythro/Ec: concentration required to restore erythromycin activity (combination MIC) (E. coli ATCC 25922 [3]) | Hemolysis HC10 (human red blood cells) | Dox/Pa fold-change (intrinsic MIC / combination MIC) (P. aeruginosa ATCC 27853 [4]) | Dox/Pa: concentration required to restore doxycycline activity (combination MIC) (P. aeruginosa ATCC 27853 [4]) | MIC (A. baumannii ATCC 19606) | MIC (S. aureus ATCC 25923) | MIC (C. albicans ATCC 90028) | MIC (E. coli ATCC 25922 [5]) | MIC (MRSA ATCC 43300) | IC50 at 20 h [6] | MIC [7]
O=C(NCCCNCCCCCCNCCCNC(=O)c1c[nH]c2ccccc12)c1c[nH]c2ccccc12.O=C(O)C(F)(F)F.O=C(O)C(F)(F)F [Compound 12b] | > 268 µM | >43 µM | 4 fold | 33.6 µM | >43 µM | > 8 fold | 33.6 µM | > 43 µM | 268 µM | > 43 µM | 134 µM | ≤ 0.34 µM | > 43 µM | ≤ 0.34 µM
O=C(NCCCNCCCCCCCNCCCNC(=O)c1c[nH]c2ccccc12)c1c[nH]c2ccccc12.O=C(O)C(F)(F)F.O=C(O)C(F)(F)F [Compound 12c] | > 263 µM | >42 µM | 1 fold | 65.9 µM | >42 µM | > 4 fold | 65.9 µM | > 42 µM | 132 µM | > 42 µM | 65.9 µM | ≤ 0.33 µM | > 42 µM | ≤ 0.33 µM
O=C(NCCCNCCCCCCCCCCNCCCNC(=O)c1c[nH]c2ccccc12)c1c[nH]c2ccccc12.O=C(O)C(F)(F)F.O=C(O)C(F)(F)F [Compound 12e] | > 250 µM | >40 µM | 2 fold | 62.4 µM | >40 µM | > 4 fold | 62.4 µM | > 40 µM | 31.2 µM | > 40 µM | 125 µM | ≤ 0.31 µM | > 40 µM | ≤ 0.31 µM
O=C(NCCCNCCCCCCCCCCCCNCCCNC(=O)c1c[nH]c2ccccc12)c1c[nH]c2ccccc12.O=C(O)C(F)(F)F.O=C(O)C(F)(F)F [Compound 12f] | 121 µM | >39 µM | 2 fold | 7.54 µM | >39 µM | 8 fold | 15.1 µM | 4.82 µM | 3.77 µM | ≤ 0.3 µM | 15.1 µM | ≤ 0.3 µM | > 39 µM | ≤ 0.3 µM
O=C(NCCCNCCCCCCCNCCCNC(=O)c1c[nH]c2ccc(Br)cc12)c1c[nH]c2ccc(Br)cc12 [Compound 13c] | 220 µM (≈ 151 µg/mL) | >35 µM | 16 fold | 6.82 µM | >35 µM | 16 fold | 13.6 µM | > 35 µM | 13.6 µM (≈ 9.36 µg/mL) | 35 µM (≈ 24.1 µg/mL) | 110 µM (≈ 75.7 µg/mL) | ≤ 0.27 µM | > 35 µM | ≤ 0.27 µM
O=C(NCCCNCCCCCCCCNCCCNC(=O)c1c[nH]c2ccc(Br)cc12)c1c[nH]c2ccc(Br)cc12 [Compound 13d] | 107 µM (≈ 75.2 µg/mL) | >34 µM | 8 fold | 6.72 µM | >34 µM | 8 fold | 13.4 µM | ≤ 0.27 µM | 3.36 µM (≈ 2.36 µg/mL) | ≤ 0.27 µM | 53.7 µM (≈ 37.7 µg/mL) | ≤ 0.27 µM | > 34 µM | ≤ 0.27 µM
O=C(NCCCNCCCCCCCCCCNCCCNC(=O)c1c[nH]c2ccc(Br)cc12)c1c[nH]c2ccc(Br)cc12 [Compound 13e] | 104 µM (≈ 76 µg/mL) | >34 µM | 8 fold | 6.52 µM | >33 µM | 4 fold | 26.1 µM | 16.7 µM (≈ 12.2 µg/mL) | 3.26 µM (≈ 2.38 µg/mL) | 4.17 µM (≈ 3.05 µg/mL) | 52.2 µM (≈ 38.1 µg/mL) | ≤ 0.26 µM | > 33 µM | ≤ 0.26 µM
O=C(NCCCNCCCCCCCCCCCCNCCCNC(=O)c1c[nH]c2ccc(Br)cc12)c1c[nH]c2ccc(Br)cc12.O=C(O)C(F)(F)F.O=C(O)C(F)(F)F [Compound 13f] | 203 µM | ≤0.25 µM | > 8 fold | 25.3 µM | 14.2 µM | 4 fold | 50.7 µM | 2.03 µM | 3.17 µM | ≤ 0.25 µM | > 203 µM | ≤ 0.25 µM | ≤ 0.25 µM | ≤ 0.25 µM
COc1ccc2[nH]cc(C(=O)NCCCNCCCCCCNCCCNC(=O)c3c[nH]c4ccc(OC)cc34)c2c1 [Compound 14b] | > 248 µM | >40 µM | 4 fold | 62.1 µM | >40 µM | > 8 fold | 31.1 µM | > 40 µM | 248 µM (≈ 143 µg/mL) | > 40 µM | 248 µM (≈ 143 µg/mL) | ≤ 0.31 µM | > 40 µM | ≤ 0.31 µM
COc1ccc2[nH]cc(C(=O)NCCCNCCCCCCCCNCCCNC(=O)c3c[nH]c4ccc(OC)cc34)c2c1 [Compound 14d] | > 240 µM | >38 µM | 0.5 fold | 240 µM | >38 µM | > 8 fold | 30.0 µM | > 38 µM | 60 µM (≈ 36.3 µg/mL) | > 38 µM | 120 µM (≈ 72.6 µg/mL) | 19.2 µM (≈ 11.6 µg/mL) | > 38 µM | ≤ 0.3 µM
COc1ccc2[nH]cc(C(=O)NCCCNCCCCCCCCCCNCCCNC(=O)c3c[nH]c4ccc(OC)cc34)c2c1.O=C(O)C(F)(F)F.O=C(O)C(F)(F)F [Compound 14e] | 232 µM | >37 µM | 0.5 fold | 116 µM | >37 µM | 8 fold | 29.0 µM | > 37 µM | 29 µM | > 37 µM | 58.1 µM | ≤ 0.29 µM | > 37 µM | ≤ 0.29 µM
